Measurements reported in US7342026B2, “Substituted quinolines for the treatment of protozoa and retrovirus co-infections” (priority 2001, dated 2008).

Experiments:
[1] = system: macrophages; assay: Cytotoxicity on macrophages; assay type: cell-based, BALB/c mice; settings: macrophages from BALB/c mice
Method: The macrophages, which will be used as host cells for the leishmania, are obtained after multiplication and differentiation of medullary precursors from BALB/c mice. This culture is prepared in the presence of supernatant from a conditioned line of fibroblasts L-929, and source of “Macrophage Colony Stimulating Factor”. After culturing for 5 days on a hydrophobic support, the adherent macrophages are recovered and then distributed in flat-bottomed 96-well plates for cell culture, in a proportion of 4×10^4 macrophages per well. The macrophages are then infected with purified amastigotes (4 parasites per macrophage) and incubated at 34° C. for 24 hours to allow development of parasitophorous vacuoles and multiplication of parasites. Under these conditions, more than 95% of the macrophages are infected.
The solutions of the substituted quinolines to be tested are prepared in DMSO before being added, at various concentrations, to the infected macrophage cultures.
The results obtained with the substituted quinolines, assigned Nos. 1, 2, 4, 6 to 11, 13 to 20, 23 to 34, 37 and 38 in Table I, are given in Table II below as regards their activity on the amastigotes of Leishmania amazonensis, of Leishmania donovani and of Leishmania infantum, and also their cytotoxicity with respect to the macrophages.

[2] = system: amastigotes of Leishmania amazonensis; assay: Amastigotes of Leishmania amazonensis in infected macrophages (leishmanicidal activity); assay type: cell-based; settings: 100% inhibitory concentration, intracellular amastigotes in BALB/c macrophages, 30 hours after addition
Method: The strain of Leishmania amazonensis is maintained by successive passages in “nude” mice (nu/nu). The amastigotes are isolated from the lesions developed on the footpads, and purified according to the method described by Antoine et al. (Parasitology, 1989, 99: 1).
The leishmanicidal activity of the quinolines is determined 30 hours after addition of the solutions of substituted quinolines. It is based on a more or less large, or even complete, decrease, firstly, in the size of the parasitophorous vacuoles and, secondly, in the number of live intracellular amastigotes.

[3] = system: Leishmania infantum (MHOM/FR/91/LEM2259V); assay: Balb/c mice infected with visceral leishmaniasis (Leishmania infantum); assay type: in vivo; settings: 10 days, quinolines oral 25 mg/kg/day, Glucantime subcutaneous 100 mg/kg/day; for Number of parasites in the liver per gram / Number of parasites in the spleen per gram: n=8; for % reduction in the number of parasites in the liver / % reduction in the number of parasites in the spleen: versus without treatment
Method: b) Tests Carried on Laboratory Animals Infected with Visceral Leishmaniasis (Leishmania infantum): 1/Laboratory Animals and Parasites
The Balb/c mice were infected with Leishmania infantum parasites at the promastigote stage (reference: MHOM/FR/91/LEM2259V), a strain isolated from a patient carrying AIDS. This strain is maintained in Schneider's drosophila culture medium (Gibco, USA) supplemented with 20% of fetal calf serum. The infectious promastigotes are cultured for 7 days and then counted. Each mouse is then infected intravenously with 0.2 ml of culture medium containing 10^7 promastigotes.
Counting of amastigotes forms in the liver and spleen.
After the treatments have been stopped and the animals sacrificed, the viscera, liver and spleen are weighed and collected in a Petri dish. Each organ is mounted several times on a degreased glass slide which, fixed and stained by the May-Grünwald-Giemsa technique, makes it possible to determine the number of amastigote forms per 500 nucleated cells.
The results are expressed in Table VI.

[4] = system: amastigotes of Trypanosoma cruzi (Tulahuen strain); assay: Amastigotes of Trypanosoma cruzi in peritoneal macrophages; assay type: cell-based; settings: Balb/c peritoneal macrophages, 4 days; read-out: T. cruzi (amastigotes) IC50
Method: c) Tests on Amastigotes of Trypanosoma cruzi
Peritoneal macrophages from Balb/c mice are collected, washed in Dulbecco PBS and then distributed in 96-well plates in a proportion of 3×10^4 cells per 100 μl and per well, in RPMI-1640 medium supplemented with 10% FCS and antibiotics.
After 24 hours at 37° C., 10^5 trypomastigotes are added with serial 2-fold dilutions of the various substituted quinolines. The cultures are then incubated at 37° C. for 4 days in a humid atmosphere (5% CO2-95% air). After fixing, and then staining with Giemsa, the antiparasitic activity is assessed by counting the extracellular trypomastigotes and the intracellular amastigotes.

[5] = system: circulating forms of Trypanosoma brucei (S427 strain); assay: microbe, parasite or virus in culture; assay type: cell-based; settings: circulating forms, culturing for 48 hours; read-out: T. brucei IC50
Method: d) Tests on the Circulating Forms of Trypanosoma brucei
The circulating forms of Trypanosoma brucei are cultured in MEM medium (minimum essential medium; GIBCO-BRL, No. 072-1100) to which Earle's salts have been added and supplemented with 1 mg/ml of glucose, 2.2 mg/ml of NaHCO3, 10 mM of Hepes, 2 mM of sodium pyruvate, 0.2 mM of 2-mercaptoethanol, 0.1 mM of hypoxanthine and 15% of inactivated horse serum.
The cultures are maintained at 37° C. in 24-well plates in a humid atmosphere (5% CO2-95% air) and the passages are carried out every 2 or 3 days at a density of 10^3 to 10^5 trypomastigotes per ml. The activity of the substituted quinolines is tested in triplicate in 96-well plates in which 10^3 parasites originating from an exponential growth phase are distributed per well, in the presence of the various solutions of substituted quinolines in a final volume of 200 μl. After culturing for 48 hours, the trypanocidal activity is assessed by counting, with a Neubauer cell, the number of live parasites per well.

[6] = system: Leishmania amazonensis (IFLA/BR/67/PH8); settings: 15 days, quinolines oral 25 mg/kg/day, Glucantime subcutaneous 100 mg/kg (28 mg Sbv/kg); for Mean of the number of parasites in the lesion per gram / Weight of lesions (mean ± standard deviation): n=8; for % reduction in the number of parasites in the lesion: versus untreated controls
Text: a) Tests Carried Out on Laboratory Animals Infected with Cutaneous Leishmaniasis (Leishmania amazonensis):
The experimental animals are male or female approximately 6- to 8-week-old Balb/c mice weighing 18-24 g, subsequently reared for reproduction in the animal house of the Instituto de Investigaciones en Ciencias de la Salud (IICS), Asuncion, Paraguay. Golden hamsters (Mesocricetus auratus) are used to maintain these strains and as reservoirs for L. amazonensis parasites.
The Balb/c mice are infected with Leishmania amazonensis parasites, at the amastigote stage of the reference strain IFLA/BR/67/PH8, subcutaneously in the ventral pad of the right rear foot, the left foot remaining as a control. The amount of amastigotes inoculated is 2×10^6 amastigotes in 50 μl of phosphate buffer saline (PBS) for L. amazonensis.
The treatments begin once the infection is well established, mainly in general 5 to 6 weeks after inoculation of the L. amazonensis amastigotes. The reference medicinal product chosen is Glucantime® or meglumine antimoniate from Aventis (France).
The untreated control mice are given 50 μl of a solution of Tween 80 with PBS.
Measurement of the lesion: the diameters of the lesions on the infected foot and on the control foot are measured using a micrometer with 1/10 mm graduations, once a week for the duration of the experiment. The first measurements begin 48 hours after inoculation of the parasites. Calculating the difference in the two measurements gives the thickness of the lesion.
The 5 ml of puree obtained are centrifuged twice. The layer containing the amastigotes is subjected to counting of the number of parasites using a Neubauer cell. Five counts are performed on each amastigote layer. The number of amastigote forms is determined using the Stauber formula which takes into account the weight of the lesion: A/N×W×coefficient of the Neubauer cell • A=number of amastigotes, N=number of nuclei W=weight of the lesion
The results are expressed by the calculation of the arithmetic mean of the diameters of the lesions measured once a week and, at the end of the protocol, after sacrifice of the mice, of the weights of the lesions and of the number of amastigotes. A Student's test (t-test) is used for the statistical analysis of all the data. The comparison is made between “control” groups with a “treatment” group per pair. A value of P<0.05 is considered to be statistically significant.

| Compound | Cytotoxicity on macrophages [1] [µg/mL] | L. amazonensis IC100 [2] [µg/mL] | IC50 [4] [µM] | IC50 [5] [µM] | further results |
| --- | --- | --- | --- | --- | --- |
| C[Si](C)(C)C#Cc1ccc2ccccc2n1 [Example 1, 2-(2-quinolyl)trimethylsilylacetylene] | 6.25 | 0.7812 | – | – | – |
| OC/C=C/c1ccc2ccccc2n1 [Example 4, E-3-(2-quinolyl)prop-2-en-1-ol] | 25 | 25 | – | – | – |
| C#Cc1ccc2ccccc2n1 [Quinoline 1, 1-(2-quinolyl)acetylene] | – | – | – | – | Number of parasites in the liver per gram [3]: 1.8 × 10^7 c per gram; Number of parasites in the spleen per gram [3]: 2.2 × 10^6 b per gram; % reduction in the number of parasites in the liver [3]: −60.0%; % reduction in the number of parasites in the spleen [3]: −47.6% |
| Cc1ccc2nc(C=O)ccc2c1 [Quinoline 5] | – | – | > 32 | – | – |
| CC/C=C/c1ccc2ccccc2n1 [Quinoline 6, E-1-(2-quinolyl)butene] | 25 | 6.25 | > 32 | 17 | Mean of the number of parasites in the lesion per gram [6]: 6.9 × 10^6 per gram; Weight of lesions (mean ± standard deviation) [6]: 0.101 ± 0.100 g; % reduction in the number of parasites in the lesion [6]: −73% |
| OC/C=C/c1ccc2ccccc2n1 [Quinoline 10] | – | – | 4 | > 32 | Cytotoxicity on macrophages ([1]; listed as 10): 6.25 µg/mL; L. amazonensis IC100 ([2]; listed as 10): 1.56 µg/mL |
| C/C=C/c1ccc2cccc(O)c2n1 [Quinoline 11] | 50 | 50 | 19 | > 32 | – |
| CC(=O)Cc1ccc2ccccc2n1 [Quinoline 13] | 25 | 25 | > 32 | 10 | – |
| CC(O)Cc1ccc2ccccc2n1 (centres unmarked) [Quinoline 15] | – | – | > 32 | 16 | – |
| CCC(O)c1ccc2ccccc2n1 (centres unmarked) [Quinoline 17] | – | – | > 32 | 3 | – |
| O=C(O)/C=C/c1ccc2ccccc2n1 [Quinoline 19] | 12.5 | 12.5 | – | – | – |
| CC(O)Cc1ccc2cccc(O)c2n1 (centres unmarked) [Quinoline 22] | – | – | 16 | 16 | – |
| Cl/C=C/C#Cc1ccc2ccccc2n1 [Quinoline 24] | – | 10 to 25 | – | – | – |
| COC(=O)/C=C/c1ccc2cc(C)ccc2n1 [Quinoline 27] | – | 50 | 25 | – | – |
| BrC#Cc1ccc2ccccc2n1 [Quinoline 28] | 12.5 | 12.5 | > 32 | 5 | – |
| COC(=O)/C=C/C=C/c1ccc2ccccc2n1 [Quinoline 30] | 25 | 12.5 | 26 | – | – |
| FC(Br)=Cc1ccc2ccccc2n1 [Quinoline 31] | 25 | 25 | – | – | – |
| CCCCCCCCC#Cc1ccc2ccccc2n1 [Quinoline 32] | 12.5 | 12.5 | – | – | – |
| c1ccc2nc(CCc3ccc4c(c3)OCO4)ccc2c1 [Quinoline 34] | 25 | 50 | 15 | 13 | – |
| C(=C\c1ccc2ccccc2n1)/c1ccc2ccccc2n1 [Quinoline 35] | – | – | > 32 | 24 | – |
| BrC(Br)=Cc1ccc2ccccc2n1 [Quinoline 36] | – | – | 21 | 4 | – |
| meglumine antimoniate [Glucantime, reference compound] | – | – | – | – | Mean of the number of parasites in the lesion per gram [6]: 7.2 × 10^5 per gram; Weight of lesions (mean ± standard deviation) [6]: 0.012 ± 0.010 g; % reduction in the number of parasites in the lesion [6]: −97%; Number of parasites in the liver per gram [3]: 1.6 × 10^7 a per gram; Number of parasites in the spleen per gram [3]: 4.4 × 10^6 per gram; % reduction in the number of parasites in the liver [3]: −65.3%; % reduction in the number of parasites in the spleen [3]: +6.0% |
